This is an account of results in patent US6136842A, “Sulphur derivatives comprising an amide bond, method for preparing same, use thereof as drugs, and pharmaceutical compositions containing such derivatives” (Hoechst Marion Roussel, priority 1996, dated 2000).

Structures are written as SMILES.

The assay addresses T1, endothelin-converting enzyme (ECE) (Homo sapiens, UniProt P42892).
T1 sequence (P42892 1-770): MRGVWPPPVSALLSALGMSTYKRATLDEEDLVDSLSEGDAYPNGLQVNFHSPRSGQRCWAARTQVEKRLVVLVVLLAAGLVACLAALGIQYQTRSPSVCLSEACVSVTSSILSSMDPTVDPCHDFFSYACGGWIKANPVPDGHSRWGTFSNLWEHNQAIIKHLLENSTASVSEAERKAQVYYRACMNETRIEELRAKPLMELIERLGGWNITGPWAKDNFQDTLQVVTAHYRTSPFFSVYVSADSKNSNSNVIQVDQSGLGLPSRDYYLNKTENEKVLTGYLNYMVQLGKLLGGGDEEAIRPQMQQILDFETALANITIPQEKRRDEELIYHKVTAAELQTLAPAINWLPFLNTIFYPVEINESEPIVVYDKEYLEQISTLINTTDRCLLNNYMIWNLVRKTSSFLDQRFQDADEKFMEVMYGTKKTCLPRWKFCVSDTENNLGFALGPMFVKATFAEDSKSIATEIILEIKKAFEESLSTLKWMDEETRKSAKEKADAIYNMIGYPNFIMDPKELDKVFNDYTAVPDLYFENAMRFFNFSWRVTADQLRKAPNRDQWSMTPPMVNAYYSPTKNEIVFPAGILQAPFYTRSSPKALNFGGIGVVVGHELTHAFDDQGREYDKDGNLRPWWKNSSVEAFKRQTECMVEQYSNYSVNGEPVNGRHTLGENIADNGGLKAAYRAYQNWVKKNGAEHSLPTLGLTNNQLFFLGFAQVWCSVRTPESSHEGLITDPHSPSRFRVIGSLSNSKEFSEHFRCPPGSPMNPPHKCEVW
The assay is described as follows: Determination of the inhibitory effect of the endothelin-converting enzyme (ECE): cleavage of (2,3-^3 H)propionyl-b-ET-1(19-35). Conditions: purified ECE, pre-incubated 30 minutes at 37° C., Tris maleate buffer pH=6.5, incubation one hour at 37° C. Format: biochemical. The source says:
Determination of the inhibitory effect of the endothelin-converting enzyme (ECE) A test is used, in which the product (2,3-^3 H)propionyl-b-ET-1(19-35) prepared as indicated below in a) is cleaved by ECE into the product (2,3-^3 H)propionyl-b-ET-1(19-21) in the presence of product P of which the inhibitory activity of ECE one wishes to determine as indicated below in b): the inhibitory activity of ECE of the product P will therefore be accordingly as high as the quantity of product of formula (II) formed, determined by counting the radioactivity, will be low. The operation is carried out as follows: b) Determination of the inhibitory activity of the endothelin-converting enzyme (ECE) […] The reaction is initiated by the addition of 10 μl of (2,3-^3 H)propionyl-b-ET-1(-19-35) prepared as indicated above in a), at a final concentration of 1.8.10^-12 M After incubation for one hour at 37° C., the reaction is stopped by the addition of 600 μl of ethyl acetate and the (2,3-^3 H)propionyl-b-ET-1(19-21) is extracted by mechanical agitation for 2 minutes. 300 μl of the organic phase is removed, 5 ml of liquid scintillator is added and the radioactivity is counted for 1 minute with a liquid scintillation counter. Each measurement is carried out in triplicate except for the ECE control (control enzyme, without the product the ECE inhibitory activity of which one wishes to test), for which the measurement is carried out six times. The percentage inhibition is calculated by establishing the relationship: [formula] The blank is carried out starting with the solution obtained without enzyme. The test was validated by its application to known inhibitors i.e. P1 which is phosphoramidon and P2 which is N-(phenylethylphosphonyl)-Leu-Trp (TAKEDA). From the cpm's obtained and by plotting the graph of the percentage of inhibition relative to the concentration of inhibitor (nM), the IC50 is calculated which therefore corresponds to the concentration which causes a 50% inhibition of ECE.
One may read the IC50 as the concentration at which inhibition is half-maximal. A high value points to weaker potency in that assay. On to `O=C(N[C@@H](Cc1c[nH]c2c(OCc3ccccc3)cccc12)C(=O)O)C(CS)Cc1cccc(Br)c1` (stereo partly drawn) [Example 8, N-[3-(3-bromophenyl)-2-(mercaptomethyl)-1-oxopropyl]-7-(phenylmethoxy)-Tryptophan], for which the IC50 was determined as 150 nM.

`O=C(N[C@@H](Cc1ccc(-c2ccccc2)cc1)c1nnn[nH]1)[C@@H](CS)Cc1ccccc1` [Example 9, (S,S)N-(2-((1,1'-biphenyl)-4-yl)-1-(1H-tetrazol-5-yl)ethyl)-alpha-(mercaptomethyl)-benzenepropanamide] gave an IC50 of 70 nM.

`O=C(N[C@@H](Cc1ccc(-c2cccs2)cc1)C(=O)O)C(CS)Cc1cccc(Br)c1` (single isomer, unassigned) [Example 7A] registered an IC50 of 120 nM.
